Source: patent US11793222B2, “Solutions and dispersions of amide compounds” (Firmenich SA, priority 2016, dated 2023)

How the values were obtained:
trained panelists [1] = assay: Evaluation of the umami effect in hot chicken bouillon by trained panelists; type: in vivo; settings: 20 ppm compound or 40 ppm solid dispersion (50:50 w/w), 4 trained panelists, blind, after 5 minutes
Protocol: (§1) The solutions were presented to 4 trained panelists on a blind test basis after 5 minutes. They were asked to rate the samples for the umami taste intensity from 0 to 10 (0 denoted no umami effect, and 10 denoted very strong umami taste). The sample according to the invention was rated higher in umami intensity (5.0) than the comparative sample (3.8).
The bouillons were presented to 4 trained panelists on a blind test basis after 5 minutes. The sample according to the invention was rated higher in umami intensity (6.5) than the comparative sample (5.5).

[2] = Dissolution kinetics in water at 60° C., followed by UV/Vis spectroscopy (absorbance at 310 nm); type: physicochemical
Protocol: The dissolution process was followed on-line by monitoring the UV signal of dissolved (E)-3-(3,4-dimethoxyphenyl)-N-(4-methoxyphenethyl)acrylamide with UV/Vis spectroscopy (measuring absorbance at 310 nm). The dissolution process yielded 50% of the target concentration of 20 ppm of (E)-3-(3,4-dimethoxyphenyl)-N-(4-methoxyphenethyl)acrylamide (10 ppm) after 1.5 minutes, and 95% (19 ppm) after 17 minutes.
20 mg of (E)-3-(3,4-dimethoxyphenyl)-N-(4-methoxyphenethyl)acrylamide were dispersed in 1 L of water at 60° C. The dissolution process yielded 50% of the target concentration of 20 ppm (10 ppm) after 78 minutes (factor 50 slower compared to example 1). 95% (19 ppm) of the target concentration could not be achieved after 6 hours. The concentration of dissolved (E)-3-(3,4-dimethoxyphenyl)-N-(4-methoxyphenethyl)acrylamide after 6 hours was 15 ppm (75% of target).
1.8 g of (E)-3-(3,4-dimethoxyphenyl)-N-(4-methoxyphenethyl)acrylamide and 1.8 g betaine were mixed with 116 g of a mixture of ethanol and water (50:50 w/w). The dispersion was heated to 60° C. until complete dissolution of the solid material. The solution was kept at 60° C., spray dried, and a fine, white powder was obtained. […] The dissolution process yielded 50% of the target concentration of 20 ppm of (E)-3-(3,4-dimethoxyphenyl)-N-(4-methoxyphenethyl)acrylamide (10 ppm) after 2.5 minutes, and 95% (19 ppm) after 29 minutes.

trained panelists [3] = assay: Evaluation of the umami effect in hot water by trained panelists; type: in vivo; settings: 20 ppm compound or 40 ppm solid dispersion (50:50 w/w), 4 trained panelists, blind, after 5 minutes
Protocol: as §1

trained panelists [4] = assay: Evaluation of the umami effect in cold water by trained panelists; type: in vivo; settings: cold water (room temperature); 20 ppm compound or 40 ppm solid dispersion (50:50 w/w); 4 trained panelists, blind, after 5 minutes
Protocol: as §1
The solutions were presented to 4 trained panelists on a blind test basis after 5 minutes. The sample according to the invention was rated higher in umami intensity (3.4) than the comparative sample (2.5).

time until 95% (19 ppm) of the target concentration (could not be achieved) ([2]; 20 mg in 1 L of water at 60° C.): > 6 h
concentration of dissolved compound after 6 hours ([2]; 20 mg in 1 L of water at 60° C., after 6 hours): 15 ppm
dissolved compound after 6 hours as % of target ([2]; 20 mg in 1 L of water at 60° C., after 6 hours, target 20 ppm): 75%
time until dissolution yielded 50% of the target concentration of 20 ppm (10 ppm) ([2]; 1 L of water at 60° C., target 20 ppm of the amide): 78 min
factor slower compared to example 1 (time to 50% of target concentration) ([2]; water at 60° C.): 50
SMILES: COc1ccc(CCNC(=O)/C=C/c2ccc(OC)c(OC)c2)cc1 [(E)-3-(3,4-dimethoxyphenyl)-N-(4-methoxyphenethyl)acrylamide]
umami intensity rating (trained panelists [1]): 5.5
umami taste intensity rating from 0 to 10 (trained panelists [3]): 3.8
umami intensity rating (trained panelists [4]): 2.5
